ChEMBL document CHEMBL3804797, “Discovery of Aryl Sulfonamides as Isoform-Selective Inhibitors of NaV1.7 with Efficacy in Rodent Pain Models” (ACS Med Chem Lett, 2016)
In brackets after ≈: the same amount, converted by molar mass. Activity calls are given as the source filed them. The rule behind the calls is not given here.

Key:
[1] = target: T1, Sodium channel protein type 9 subunit alpha (Homo sapiens, UniProt Q15858); assay: Inhibition of full length human Nav1.7 channel expressed in HEK cells co-expressing human sodium channel subunit beta1 at holding potential -60 mV by automated voltage clamp analysis; format: cell-based, HEK293
T1 sequence (Q15858 whole entry): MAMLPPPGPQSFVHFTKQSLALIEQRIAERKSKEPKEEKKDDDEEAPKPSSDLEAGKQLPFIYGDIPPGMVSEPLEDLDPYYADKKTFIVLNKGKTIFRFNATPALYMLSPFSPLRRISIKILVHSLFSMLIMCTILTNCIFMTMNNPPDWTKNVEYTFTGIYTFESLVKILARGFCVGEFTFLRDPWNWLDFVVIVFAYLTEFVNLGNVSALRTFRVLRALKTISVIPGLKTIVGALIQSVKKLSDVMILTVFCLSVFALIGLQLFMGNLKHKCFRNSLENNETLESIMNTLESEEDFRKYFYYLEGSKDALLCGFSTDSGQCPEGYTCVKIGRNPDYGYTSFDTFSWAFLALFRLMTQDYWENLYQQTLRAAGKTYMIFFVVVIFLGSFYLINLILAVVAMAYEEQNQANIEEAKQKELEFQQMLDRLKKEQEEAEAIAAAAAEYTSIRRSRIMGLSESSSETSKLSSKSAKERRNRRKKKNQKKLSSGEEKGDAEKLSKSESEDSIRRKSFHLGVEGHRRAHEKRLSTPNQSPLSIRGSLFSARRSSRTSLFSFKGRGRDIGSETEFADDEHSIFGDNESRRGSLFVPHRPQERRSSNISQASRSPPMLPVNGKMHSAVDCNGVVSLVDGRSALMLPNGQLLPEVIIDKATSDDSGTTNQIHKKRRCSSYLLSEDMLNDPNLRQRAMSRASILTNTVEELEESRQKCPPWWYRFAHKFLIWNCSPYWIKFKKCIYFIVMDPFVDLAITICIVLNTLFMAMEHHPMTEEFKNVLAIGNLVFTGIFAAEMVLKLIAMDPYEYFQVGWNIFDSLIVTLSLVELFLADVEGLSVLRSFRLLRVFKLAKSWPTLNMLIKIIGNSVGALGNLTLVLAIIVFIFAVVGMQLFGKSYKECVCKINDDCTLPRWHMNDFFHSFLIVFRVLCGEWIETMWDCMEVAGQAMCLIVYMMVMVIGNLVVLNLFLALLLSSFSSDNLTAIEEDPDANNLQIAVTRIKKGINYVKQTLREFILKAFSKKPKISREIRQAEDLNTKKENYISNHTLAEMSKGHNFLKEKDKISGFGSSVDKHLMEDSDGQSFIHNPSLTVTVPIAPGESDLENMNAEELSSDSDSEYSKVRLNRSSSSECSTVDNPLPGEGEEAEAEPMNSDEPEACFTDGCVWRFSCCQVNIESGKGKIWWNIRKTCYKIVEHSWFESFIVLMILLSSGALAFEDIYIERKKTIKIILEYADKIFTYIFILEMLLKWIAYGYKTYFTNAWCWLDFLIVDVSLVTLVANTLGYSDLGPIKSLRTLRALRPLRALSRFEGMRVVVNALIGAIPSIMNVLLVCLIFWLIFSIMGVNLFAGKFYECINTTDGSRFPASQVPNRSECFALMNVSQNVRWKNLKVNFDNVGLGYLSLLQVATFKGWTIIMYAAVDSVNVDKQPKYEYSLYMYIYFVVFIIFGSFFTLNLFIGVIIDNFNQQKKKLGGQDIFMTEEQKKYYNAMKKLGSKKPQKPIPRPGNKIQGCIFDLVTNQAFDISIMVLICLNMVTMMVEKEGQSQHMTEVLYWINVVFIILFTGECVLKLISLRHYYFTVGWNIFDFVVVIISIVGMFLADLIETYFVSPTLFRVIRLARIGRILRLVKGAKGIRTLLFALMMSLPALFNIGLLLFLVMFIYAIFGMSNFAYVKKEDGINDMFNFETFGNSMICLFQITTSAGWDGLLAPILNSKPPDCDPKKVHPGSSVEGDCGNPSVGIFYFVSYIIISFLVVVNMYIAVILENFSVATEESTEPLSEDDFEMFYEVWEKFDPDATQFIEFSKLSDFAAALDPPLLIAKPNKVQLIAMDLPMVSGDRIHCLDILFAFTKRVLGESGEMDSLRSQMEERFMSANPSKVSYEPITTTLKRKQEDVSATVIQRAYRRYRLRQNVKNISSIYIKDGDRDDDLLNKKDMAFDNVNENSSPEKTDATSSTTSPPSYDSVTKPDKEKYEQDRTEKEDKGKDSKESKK

[2] = target: Sodium channel protein type 5 subunit alpha (Homo sapiens, UniProt Q14524); assay: Inhibition of full length human Nav1.5 channel expressed in HEK cells co-expressing human sodium channel subunit beta1 at holding potential -60 mV by automated voltage clamp analysis; format: cell-based, HEK293
Sequence of Sodium channel protein type 5 subunit alpha (Q14524 whole entry): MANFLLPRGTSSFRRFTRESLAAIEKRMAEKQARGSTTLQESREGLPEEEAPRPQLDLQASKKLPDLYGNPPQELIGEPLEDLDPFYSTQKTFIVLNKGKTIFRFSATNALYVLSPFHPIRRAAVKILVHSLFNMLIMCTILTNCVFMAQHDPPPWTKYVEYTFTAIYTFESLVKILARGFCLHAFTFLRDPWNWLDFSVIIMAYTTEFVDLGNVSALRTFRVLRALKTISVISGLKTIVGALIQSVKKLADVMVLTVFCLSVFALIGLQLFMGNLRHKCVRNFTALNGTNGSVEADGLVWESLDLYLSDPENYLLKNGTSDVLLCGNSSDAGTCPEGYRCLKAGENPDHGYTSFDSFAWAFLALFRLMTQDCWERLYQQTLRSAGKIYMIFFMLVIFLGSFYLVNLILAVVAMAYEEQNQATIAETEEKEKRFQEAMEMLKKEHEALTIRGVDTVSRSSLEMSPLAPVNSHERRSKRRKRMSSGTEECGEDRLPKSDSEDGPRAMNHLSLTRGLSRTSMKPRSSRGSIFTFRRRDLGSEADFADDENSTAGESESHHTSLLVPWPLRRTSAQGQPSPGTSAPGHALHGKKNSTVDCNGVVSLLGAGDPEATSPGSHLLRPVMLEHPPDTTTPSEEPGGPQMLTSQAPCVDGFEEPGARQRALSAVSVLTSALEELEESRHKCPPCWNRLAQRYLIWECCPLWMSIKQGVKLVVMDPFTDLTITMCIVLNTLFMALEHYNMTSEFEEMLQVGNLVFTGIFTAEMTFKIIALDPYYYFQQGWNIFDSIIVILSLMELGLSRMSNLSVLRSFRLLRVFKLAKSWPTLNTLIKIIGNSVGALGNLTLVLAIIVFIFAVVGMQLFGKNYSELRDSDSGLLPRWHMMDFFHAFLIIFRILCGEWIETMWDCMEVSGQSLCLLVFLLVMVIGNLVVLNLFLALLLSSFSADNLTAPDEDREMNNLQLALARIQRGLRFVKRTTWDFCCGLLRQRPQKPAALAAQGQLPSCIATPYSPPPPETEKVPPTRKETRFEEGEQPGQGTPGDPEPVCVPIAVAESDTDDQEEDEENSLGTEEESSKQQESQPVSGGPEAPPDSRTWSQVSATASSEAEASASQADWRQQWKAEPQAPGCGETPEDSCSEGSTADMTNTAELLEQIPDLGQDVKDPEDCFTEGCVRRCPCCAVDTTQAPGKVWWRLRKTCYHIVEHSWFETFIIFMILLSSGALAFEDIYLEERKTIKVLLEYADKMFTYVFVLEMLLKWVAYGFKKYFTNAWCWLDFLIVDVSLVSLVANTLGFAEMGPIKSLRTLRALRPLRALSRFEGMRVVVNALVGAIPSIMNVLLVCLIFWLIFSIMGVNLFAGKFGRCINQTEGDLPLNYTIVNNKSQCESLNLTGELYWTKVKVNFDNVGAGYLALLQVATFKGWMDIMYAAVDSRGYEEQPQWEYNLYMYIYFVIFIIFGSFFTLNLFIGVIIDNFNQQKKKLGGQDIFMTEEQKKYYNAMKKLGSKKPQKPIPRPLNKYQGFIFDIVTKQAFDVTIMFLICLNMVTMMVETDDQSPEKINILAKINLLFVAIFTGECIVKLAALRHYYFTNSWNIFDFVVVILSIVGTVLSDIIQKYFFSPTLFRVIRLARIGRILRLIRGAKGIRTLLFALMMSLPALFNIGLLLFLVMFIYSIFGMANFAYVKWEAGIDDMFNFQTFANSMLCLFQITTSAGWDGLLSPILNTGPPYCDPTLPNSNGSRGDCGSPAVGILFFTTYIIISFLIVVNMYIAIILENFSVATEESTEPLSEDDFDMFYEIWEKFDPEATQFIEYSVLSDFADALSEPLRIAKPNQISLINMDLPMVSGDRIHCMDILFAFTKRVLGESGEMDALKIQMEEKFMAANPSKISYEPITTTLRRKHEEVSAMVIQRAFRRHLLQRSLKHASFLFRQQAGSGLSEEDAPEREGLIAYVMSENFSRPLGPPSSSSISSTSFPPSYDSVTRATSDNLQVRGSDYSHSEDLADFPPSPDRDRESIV

[3] = target: Sodium channel protein type 1 subunit alpha (Homo sapiens, UniProt P35498); assay: Inhibition of full length human Nav1.1 channel expressed in HEK cells co-expressing human sodium channel subunit beta1 at holding potential -40 mV by automated voltage clamp analysis; format: cell-based, HEK293
[4] = target: Sodium channel protein type 2 subunit alpha (Homo sapiens, UniProt Q99250); assay: Inhibition of full length human Nav1.2 channel expressed in HEK cells co-expressing human sodium channel subunit beta1 at holding potential -35 mV by automated voltage clamp analysis; format: cell-based, HEK293
[5] = target: Sodium channel protein type 8 subunit alpha (Homo sapiens, UniProt Q9UQD0); assay: Inhibition of full length human Nav1.6 channel expressed in HEK cells co-expressing human sodium channel subunit beta1 at holding potential -35 mV by automated voltage clamp analysis; format: cell-based, HEK293
[6] = target: Sodium channel protein type 9 subunit alpha (Mus musculus, UniProt Q62205); assay: Inhibition of Nav1.7 channel in mouse CAD cells by whole-cell patch clamp assay; format: cell-based
[7] = target: Sodium channel protein type 9 subunit alpha (Rattus norvegicus, UniProt O08562); assay: Inhibition of rat Nav1.7 channel by automated voltage clamp analysis
hERG (KCNH2) = hERG (KCNH2) (Homo sapiens, UniProt Q12809); assay: Displacement of [3H] astemizole from human ERG channel at 5 uM; settings: probe [3H] astemizole
Sequence of hERG (KCNH2) (Q12809 whole entry): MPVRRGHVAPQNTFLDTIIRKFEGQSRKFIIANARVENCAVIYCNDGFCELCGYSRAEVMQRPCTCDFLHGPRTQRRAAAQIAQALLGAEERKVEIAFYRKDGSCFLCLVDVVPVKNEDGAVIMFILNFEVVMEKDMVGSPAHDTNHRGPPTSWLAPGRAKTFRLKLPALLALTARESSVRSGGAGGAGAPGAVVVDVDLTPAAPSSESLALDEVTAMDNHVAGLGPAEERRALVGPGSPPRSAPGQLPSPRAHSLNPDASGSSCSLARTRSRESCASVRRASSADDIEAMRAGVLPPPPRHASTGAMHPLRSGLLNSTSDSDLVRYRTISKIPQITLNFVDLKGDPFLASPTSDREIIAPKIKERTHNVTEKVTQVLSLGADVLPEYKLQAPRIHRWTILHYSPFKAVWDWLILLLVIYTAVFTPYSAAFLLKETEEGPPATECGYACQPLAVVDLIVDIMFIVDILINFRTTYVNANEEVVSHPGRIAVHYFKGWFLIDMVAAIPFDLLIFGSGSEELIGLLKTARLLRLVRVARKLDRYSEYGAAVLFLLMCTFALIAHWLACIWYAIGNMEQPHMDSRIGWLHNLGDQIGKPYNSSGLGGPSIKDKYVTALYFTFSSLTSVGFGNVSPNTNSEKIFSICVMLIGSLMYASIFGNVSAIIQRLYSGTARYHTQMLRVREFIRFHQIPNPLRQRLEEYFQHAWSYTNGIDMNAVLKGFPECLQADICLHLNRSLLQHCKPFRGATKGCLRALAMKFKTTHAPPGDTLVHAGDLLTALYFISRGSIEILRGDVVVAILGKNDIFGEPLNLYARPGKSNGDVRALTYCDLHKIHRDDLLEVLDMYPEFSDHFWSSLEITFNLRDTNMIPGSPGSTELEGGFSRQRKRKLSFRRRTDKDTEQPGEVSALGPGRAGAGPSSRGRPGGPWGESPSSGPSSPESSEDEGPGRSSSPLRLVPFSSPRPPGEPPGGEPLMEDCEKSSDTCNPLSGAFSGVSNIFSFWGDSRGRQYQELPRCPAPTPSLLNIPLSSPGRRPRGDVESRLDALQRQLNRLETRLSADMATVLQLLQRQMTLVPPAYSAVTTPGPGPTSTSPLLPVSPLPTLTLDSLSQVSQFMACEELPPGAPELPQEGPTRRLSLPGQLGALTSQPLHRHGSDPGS

Cytochrome P450 2C9 = Cytochrome P450 2C9 (Homo sapiens, UniProt P11712); assay: Inhibition of CYP2C9 in human liver microsomes using warfarin as substrate after 30 mins by LC/MS/MS analysis; format: ADME
Cytochrome P450 3A4 = Cytochrome P450 3A4 (Homo sapiens, UniProt P08684); assay: Inhibition of CYP3A4 in human liver microsomes using testosterone/midazolam as substrate after 30 mins by LC/MS/MS analysis; format: ADME
Cytochrome P450 1A2 = target: T2, Cytochrome P450 1A2 (Homo sapiens, UniProt P05177); assay: Inhibition of CYP1A2 in human liver microsomes using phenacetin as substrate after 30 mins by LC/MS/MS analysis; format: ADME
T2 sequence (P05177 whole entry): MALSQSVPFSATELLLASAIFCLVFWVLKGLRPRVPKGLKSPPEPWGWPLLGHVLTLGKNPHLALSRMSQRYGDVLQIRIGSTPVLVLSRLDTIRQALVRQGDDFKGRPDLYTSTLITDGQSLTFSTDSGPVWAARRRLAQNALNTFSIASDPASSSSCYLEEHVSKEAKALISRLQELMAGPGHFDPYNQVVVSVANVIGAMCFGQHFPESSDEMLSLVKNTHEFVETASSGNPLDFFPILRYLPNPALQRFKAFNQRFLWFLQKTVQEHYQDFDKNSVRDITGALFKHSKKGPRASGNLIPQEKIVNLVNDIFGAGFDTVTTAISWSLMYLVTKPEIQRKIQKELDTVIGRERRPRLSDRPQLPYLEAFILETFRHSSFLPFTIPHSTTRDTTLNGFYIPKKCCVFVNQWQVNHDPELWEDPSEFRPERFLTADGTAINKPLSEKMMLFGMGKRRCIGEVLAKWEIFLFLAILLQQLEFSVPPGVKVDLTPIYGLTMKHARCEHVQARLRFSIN

Cytochrome P450 2D6 = Cytochrome P450 2D6 (Homo sapiens, UniProt P10635); assay: Inhibition of CYP2D6 in human liver microsomes using dextromethorphan as substrate after 30 mins by LC/MS/MS analysis; format: ADME
[8] = Kinetic solubility of compound at pH 7.2; format: physicochemical; settings: buffer, read-out: Kinetic_solubility
[9] = Apparent permeability from apical to basolateral side in MDCK1 cells at 10 uM incubated for 2 hrs; format: ADME, cell-based, Canis lupus familiaris; settings: dog, MDCK
[10] = Efflux ratio of apparent permeability from apical to basolateral side to basolateral to apical side in MDCK1 cells expressing human MDR1 at 10 uM; format: ADME, cell-based, Canis lupus familiaris; settings: dog, mdck1, 10 µM
[11] = Plasma protein binding in rat at 10 uM incubated for 20 hrs by HPLC-MS/MS analysis; format: ADME, cell-free; settings: read-out: PPB (converted)
[12] = Cmax in Sprague-Dawley rat at 1 mg/kg, iv; format: ADME, organism-based; parameters: dose 1 mg/kg, route intravenous; settings: in vivo
[13] = AUC (0 to infinity) in Sprague-Dawley rat at 1 mg/kg, iv; format: ADME, organism-based; parameters: dose 1 mg/kg, time infinity, route intravenous; settings: in vivo
[14] = Half life in Sprague-Dawley rat at 1 mg/kg, iv; format: ADME, organism-based; settings: in vivo
[15] = Plasma clearance in Sprague-Dawley rat at 1 mg/kg, iv; format: ADME, organism-based
[16] = Volume of distribution at steady state in Sprague-Dawley rat at 1 mg/kg, iv; format: ADME, organism-based; settings: in vivo, read-out: Vdss
[17] = Cmax in Sprague-Dawley rat at 20 mg/kg, ip; format: ADME, organism-based; parameters: dose 20 mg/kg, route intraperitoneal; settings: in vivo
[18] = Tmax in Sprague-Dawley rat at 20 mg/kg, ip; format: ADME, organism-based; settings: in vivo
[19] = AUC (0 to infinity) in Sprague-Dawley rat at 20 mg/kg, ip; format: ADME, organism-based; parameters: dose 20 mg/kg, route intraperitoneal, time infinity; settings: in vivo
[20] = Half life in Sprague-Dawley rat at 20 mg/kg, ip; format: ADME, organism-based; settings: in vivo
[21] = Ratio of drug uptake in brain to plasma in Sprague-Dawley rat at 20 mg/kg, ip by UHPLC analysis; format: ADME, organism-based; settings: read-out: BPR
[22] = target: T1, Sodium channel protein type 9 subunit alpha; assay: Inhibition of full length human Nav1.7 channel expressed in HEK cells co-expressing human sodium channel subunit beta3 at -150 mV by manual voltage clamp analysis; format: cell-based, HEK293
[23] = Dissociation constant, pKa of the compound at 100 uM by UV-spectrophotometric titration method; format: physicochemical
Cytochrome P450 2C19 = Cytochrome P450 2C19 (Homo sapiens, UniProt P33261); assay: Inhibition of CYP2C19 in human liver microsomes using mephenytoin as substrate after 30 mins by LC/MS/MS analysis; format: ADME
[24] = Selectivity ratio of IC50 for rat Nav1.7 to IC50 for human Nav1.7
Rattus norvegicus [25] = assay: Analgesic activity in ip dosed rat assessed as inhibition of formalin-induced late phase pain response dosed 2 hrs prior to formalin challenge measured over 10 to 40 mins by automated nociception analysis; format: functional, organism-based
Rattus norvegicus [26] = assay: Analgesic activity in rat assessed as inhibition of formalin-induced late phase pain response at 30 mg/kg,ip dosed 2 hrs prior to formalin challenge measured over 10 to 40 mins by automated nociception analysis; format: functional, organism-based
Rattus norvegicus [27] = assay: Analgesic activity in rat assessed as delay in onset of formalin-induced pain response at 100 mg/kg,ip dosed 2 hrs prior to formalin challenge measured over 60 mins by automated nociception analysis; format: functional, organism-based
Rattus norvegicus [28] = assay: Analgesic activity in rat assessed as inhibition of aconitine-induced pain response at 30 mg/kg, ip dosed 2 hrs prior to aconitine challenge measured over 60 mins by automated nociception analysis relative to control; format: functional, organism-based
Mus musculus [29] = assay: Analgesic activity in mouse assessed as reduction in CFA-induced cold allodynia at 10 mg/kg, ip administered 1 hr prior to acetone challenge on day 2 post CFA injection measured for 120 secs relative to vehicle control; format: functional, organism-based
Mus musculus [30] = assay: Analgesic activity in ip dosed mouse assessed as reduction in CFA-induced cold allodynia administered 1 hr prior to acetone challenge on day 2 post CFA injection measured for 120 secs relative to vehicle control; format: functional, organism-based
Homo sapiens = species on record: Homo sapiens; assay: Selectivity ratio of IC50 for human Nav1.5 to IC50 for human Nav1.7
Rattus norvegicus [31] = assay: Analgesic activity in rat assessed as reduction in formalin-induced late phase pain response at 100 mg/kg, ip dosed 2 hrs prior to formalin challenge measured over 10 to 40 mins by automated nociception analysis relative to formalin; format: functional; parameters: scale not given: the % may be the effect or the level left
Rattus norvegicus [32] = assay: Analgesic activity in rat assessed as inhibition of aconitine-induced pain response at 100 mg/kg, ip dosed 2 hrs prior to aconitine challenge measured over 60 mins by automated nociception analysis relative to aconitine; format: functional; parameters: scale not given: the % may be the effect or the level left
Rattus norvegicus [33] = assay: Analgesic activity in formalin-induced rat pain model assessed as free plasma concentration required to show efficacy at 30 to 100 mg/kg, ip dosed 2 hrs prior to aconitine challenge measured over 60 mins by automated nociception analysis; format: functional
Rattus norvegicus [34] = assay: Analgesic activity in aconitine-induced rat pain model assessed as free plasma concentration required to show efficacy at 30 to 100 mg/kg, ip dosed 2 hrs prior to aconitine challenge measured over 60 mins by automated nociception analysis; format: functional
Mus musculus [35] = assay: Analgesic activity in mouse assessed as reduction in CFA-induced cold allodynia at 30 mg/kg, ip administered 1 hr prior to acetone challenge on day 2 post CFA injection measured for 120 secs relative to vehicle control; format: functional; parameters: scale not given: the % may be the effect or the level left
Mus musculus [36] = assay: Analgesic activity in mouse assessed as reduction in CFA-induced cold allodynia at 100 mg/kg, ip administered 1 hr prior to acetone challenge on day 2 post CFA injection measured for 120 secs relative to vehicle control; format: functional; parameters: scale not given: the % may be the effect or the level left

Nc1noc2ccc(-c3cc(Cl)ccc3Oc3cc(F)c(S(=O)(=O)Nc4ncns4)cc3F)cc12 [listing 1 of 2 here]
IC50 [1]: 0.4 nM
IC50 [2]: 1.38 µM
IC50 [3]: 3.08 µM
IC50 [4]: 4.2 nM
IC50 [5]: 11 nM
IC50 [6]: 0.2 nM
IC50 [7]: 26 nM
inhibition at 5 µM (hERG (KCNH2)): < 11%
IC50 (Cytochrome P450 2C9): 170 nM
IC50 (Cytochrome P450 3A4): 77 nM
IC50 (Cytochrome P450 1A2): > 9 µM
IC50 (Cytochrome P450 2D6): > 9 µM
solubility kinetic [8]: 121 µM (≈ 64.8 µg/mL)
Papp A→B at 2 h, 10 µM [9]: 2.1 ×10⁻⁶ cm/s
Ratio [10]: 47
fraction unbound at 20 h, 10 µM [11]: 0.011
Cmax [12]: 2900 nM
AUC(0-inf) [13]: 0.18 µM·h
half-life [14]: 7.8 min
clearance [15]: 177 mL/min/kg
Vd [16]: 1.4 L/kg
Cmax [17]: 5.3 µM
Tmax [18]: 3.6 min
AUC(0-inf) [19]: 13.5 µM·h
half-life [20]: 132 min
Kp [21]: 0.019
IC50 [22]: 0.4 nM
pKa at 100 µM [23]: 3.2

Nc1noc2ccc(-c3cc(Cl)ccc3Oc3cc(F)c(S(=O)(=O)Nc4ncccn4)cc3F)cc12
inhibition at 5 µM (hERG (KCNH2)): < 11%
IC50 (Cytochrome P450 2C9): 570 nM
IC50 (Cytochrome P450 3A4): > 10000 nM
IC50 (Cytochrome P450 1A2): > 10 µM
IC50 (Cytochrome P450 2D6): > 10 µM
IC50 (Cytochrome P450 2C19): > 10 µM

O=S(=O)(Nc1ncns1)c1cc(F)c(Oc2ccc(Cl)cc2-c2cccc3nccn23)cc1F
IC50 [1]: 17 nM
IC50 [2]: > 10 µM
inhibition at 5 µM (hERG (KCNH2)): < 11%

Nc1noc2ccc(-c3cc(Cl)ccc3Oc3cc(F)c(S(=O)(=O)Nc4ncns4)cc3F)cc12 [listing 2 of 2 here]
Ratio IC50 [24]: > 60
Activity (Rattus norvegicus [25]): Dose-dependent effect
Activity (Rattus norvegicus [26]): inactive
Activity (Rattus norvegicus [27]): Active
Activity (Rattus norvegicus [28]): inactive
Activity (Mus musculus [29]): inactive
Activity (Mus musculus [30]): Dose-dependent effect

O=S(=O)(Nc1ncns1)c1cc(F)c(Oc2ccc(Cl)cc2-c2ccc3nccnc3c2)cc1F
IC50 [2]: > 10 µM
Ratio IC50 (Homo sapiens): > 2700
IC50 [7]: 740 nM
Ratio IC50 [24]: > 200
inhibition at 5 µM (hERG (KCNH2)): < 11%

O=S(=O)(Nc1ncns1)c1cc(F)c(Oc2ccc(Cl)cc2-c2ncc3cnccn23)cc1F
inhibition at 5 µM (hERG (KCNH2)): < 11%

Nc1noc2ccc(-c3cc(Cl)ccc3Oc3cc(F)c(S(=O)(=O)[N-]c4ncns4)cc3F)cc12.[Na+]
Activity (Rattus norvegicus [31]): 60%
Activity (Rattus norvegicus [32]): 43%
Cp(f) (Rattus norvegicus [33]): 250 nM
Cp(f) (Rattus norvegicus [34]): 250 nM
Activity (Mus musculus [35]): 59%
Activity (Mus musculus [36]): 83%

Nc1noc2ccc(CCOc3cc(F)c(S(=O)(=O)Nc4ncns4)cc3F)cc12
IC50 [1]: 241 nM
inhibition at 5 µM (hERG (KCNH2)): < 11%

Nc1n[nH]c2ccc(-c3cc(Cl)ccc3Oc3cc(F)c(S(=O)(=O)Nc4ncns4)cc3F)cc12
IC50 [2]: > 10 µM
inhibition at 5 µM (hERG (KCNH2)): < 11%

O=S(=O)(Nc1ncns1)c1cc(F)c(Oc2ccc(Cl)cc2-c2cnc3n2CCNC3)cc1F
IC50 [2]: > 10 µM
inhibition at 5 µM (hERG (KCNH2)): < 11%
